Test results: ChEMBL document CHEMBL5120890, “Untapped Pharmaceutical Potential of 4,5,4'-Trihydroxy-3,3'-dimethoxybibenzyl for Regulating Obesity: A Cell-Based Study with a Focus on Terminal Differentiation in Adipogenesis” (J Nat Prod, 2022)
Active and inactive are the calls of the source. No cut-off for these calls is given here.

How the values were obtained:
[1] = Cytotoxicity against human PCS-210-010 pre-adipocytes assessed as reduction in cell viability at >=10 uM after 48 hrs by MTT assay; format: toxicity, cell-based; details: pcs-210-010, 48 h
3T3-L1 [2] = test: Down regulation of PL1N1 mRNA expression in mouse 3T3-L1 cells in early differentiation at 0.5 to 5 uM after 8 days by RT-qPCR analysis; format: functional, cell-based; details: dose 0.5-5 µM, time 8.0 day
3T3-L1 [3] = test: Down regulation of PLIN1 protein expression in mouse 3T3-L1 cells in early differentiation at 0.5 to 5 uM after 8 days by western blot analysis; format: functional, cell-based; details: dose 0.5-5 µM, time 8.0 day
[4] = Cytotoxicity against human PCS-210-010 adipocytes assessed as reduction in cell viability after 48 hrs by MTT assay; format: toxicity, cell-based
3T3-L1 [5] = test: Down regulation of adiponectin mRNA expression in mouse 3T3-L1 cells in early differentiation at 0.5 to 5 uM after 8 days by RT-qPCR analysis; format: functional, cell-based; details: dose 0.5-5 µM, time 8.0 day
3T3-L1 [6] = test: Down regulation of PL1N1 mRNA expression in mouse 3T3-L1 cells in maturation at 0.5 to 5 uM after 10 days by RT-qPCR analysis; format: functional, cell-based; details: dose 0.5-5 µM, time 10.0 day
PCS-210-010 [7] = test: Inhibition of preadipocyte differentiation in human PCS-210-010 cells assessed as increase in glycerol release in maturation at 0.5 to 5 uM incubated for 8 days by colorimetric assay; format: functional, cell-based; details: dose 0.5-5 µM, time 8.0 day, DDE = dose-dependent effect
PCS-210-010 [8] = test: Inhibition of preadipocyte differentiation in human PCS-210-010 cells assessed as reduction in triglyceride accumulation in maturation at 0.5 to 5 uM incubated for 8 days by colorimetric assay; format: functional, cell-based; details: dose 0.5-5 µM, time 8.0 day, DDE = dose-dependent effect
PCS-210-010 [9] = test: Inhibition of preadipocyte differentiation in human PCS-210-010 cells assessed as increase in glycerol release in early differentiation at 0.5 to 5 uM incubated for 8 days by colorimetric assay; format: functional, cell-based; details: dose 0.5-5 µM, time 8.0 day, DDE = dose-dependent effect
PCS-210-010 [10] = test: Induction of apoptosis in human PCS-210-010 adipocytes at 0.5 to 5 uM after 48 hrs by PI/Hoechst 33342 staining based fluorescence microscopic analysis; format: functional, cell-based; details: dose 0.5-5 µM
3T3-L1 [11] = test: Down regulation of LPL protein expression in mouse 3T3-L1 cells in maturation at 0.5 to 5 uM after 10 days by western blot analysis; format: functional, cell-based; details: dose 0.5-5 µM, time 10.0 day
3T3-L1 [12] = test: Down regulation of FABP4 mRNA expression in mouse 3T3-L1 cells in maturation at 0.5 to 5 uM after 10 days by RT-qPCR analysis; format: functional, cell-based; details: dose 0.5-5 µM, time 10.0 day
3T3-L1 [13] = test: Down regulation of FABP4 mRNA expression in mouse 3T3-L1 cells in early differentiation at 0.5 to 5 uM after 8 days by RT-qPCR analysis; format: functional, cell-based; details: dose 0.5-5 µM, time 8.0 day
[14] = molecular target: RAC-alpha serine/threonine-protein kinase (Mus musculus) (UniProt P31750); test: Inhibition of AKT in mouse 3T3-L1 cells assessed as reduction in AKT phosphorylation in maturation at 0.5 to 5 uM after 48 hrs by Western blot analysis; format: cell-based; details: dose 0.5-5 µM
RAC-alpha serine/threonine-protein kinase (Mus musculus), sequence (P31750 whole entry): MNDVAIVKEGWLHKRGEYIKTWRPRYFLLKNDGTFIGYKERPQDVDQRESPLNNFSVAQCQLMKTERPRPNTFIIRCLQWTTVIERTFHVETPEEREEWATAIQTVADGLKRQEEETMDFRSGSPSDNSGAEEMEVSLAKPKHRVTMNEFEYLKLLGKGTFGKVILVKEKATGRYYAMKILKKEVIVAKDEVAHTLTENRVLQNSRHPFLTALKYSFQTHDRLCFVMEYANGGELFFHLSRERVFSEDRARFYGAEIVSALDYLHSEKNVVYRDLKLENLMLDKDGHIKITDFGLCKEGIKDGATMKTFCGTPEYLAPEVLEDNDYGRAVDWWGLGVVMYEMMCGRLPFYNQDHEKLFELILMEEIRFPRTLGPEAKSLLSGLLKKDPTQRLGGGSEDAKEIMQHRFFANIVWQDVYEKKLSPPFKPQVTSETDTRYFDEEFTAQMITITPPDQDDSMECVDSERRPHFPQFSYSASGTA

3T3-L1 [15] = test: Down regulation of CDK4 protein expression in mouse 3T3-L1 cells at 0.5 to 5 uM after 18 hrs by western blot analysis; format: functional, cell-based; details: dose 0.5-5 µM
[16] = molecular target: 5'-AMP-activated protein kinase (Mus musculus) (UniProt Q5EG47+Q8BRK8+Q6PAM0+O54950+Q91WG5+Q9R078+Q8BGM7); test: Activation of AMPK in mouse 3T3-L1 cells assessed as increase in AMPKbeta phosphorylation in maturation at 0.5 to 5 uM after 48 hrs by Western blot analysis; format: cell-based; details: filed as activator, dose 0.5-5 µM
3T3-L1 [17] = test: Down regulation of FABP4 protein expression in mouse 3T3-L1 cells in early differentiation at 0.5 to 5 uM after 8 days by western blot analysis; format: functional, cell-based; details: dose 0.5-5 µM, time 8.0 day
3T3-L1 [18] = test: Down regulation of CDK6 protein expression in mouse 3T3-L1 cells at 0.5 to 5 uM after 18 hrs by western blot analysis; format: functional, cell-based; details: dose 0.5-5 µM
3T3-L1 [19] = test: Activation of AMPK-ACC signalling pathway in mouse 3T3-L1 cells assessed as increase in ACC phosphorylation in maturation at 0.5 to 5 uM after 48 hrs by Western blot analysis; format: cell-based; details: filed as activator, dose 0.5-5 µM
3T3-L1 [20] = test: Down regulation of FAS mRNA expression in mouse 3T3-L1 cells in maturation at 0.5 to 5 uM after 10 days by RT-qPCR analysis; format: functional, cell-based; details: dose 0.5-5 µM, time 10.0 day
PCS-210-010 [21] = test: Induction of apoptosis in human PCS-210-010 pre-adipocytes at 0.5 to 5 uM after 48 hrs by PI/Hoechst 33342 staining based fluorescence microscopic analysis; format: functional, cell-based; details: dose 0.5-5 µM
3T3-L1 [22] = test: Induction of apoptosis in mouse 3T3-L1 adipocytes at 0.5 to 5 uM after 48 hrs by PI/Hoechst 33342 staining based fluorescence microscopic analysis; format: functional, cell-based; details: dose 0.5-5 µM
3T3-L1 [23] = test: Down regulation of LPL protein expression in mouse 3T3-L1 cells in early differentiation at 0.5 to 5 uM after 8 days by western blot analysis; format: functional, cell-based; details: dose 0.5-5 µM, time 8.0 day
3T3-L1 [24] = test: Inhibition of preadipocyte differentiation in mouse 3T3-L1 cells assessed as reduction in triglyceride accumulation in early differentiation at 0.5 to 5 uM incubated for 8 days by colorimetric assay; format: functional, cell-based; details: dose 0.5-5 µM, time 8.0 day, DDE = dose-dependent effect
3T3-L1 [25] = test: Upregulation of p27 protein expression in mouse 3T3-L1 cells at 0.5 to 5 uM after 18 hrs by western blot analysis; format: functional, cell-based; details: dose 0.5-5 µM
3T3-L1 [26] = test: Induction of apoptosis in mouse 3T3-L1 pre-adipocytes at 0.5 to 5 uM after 48 hrs by PI/Hoechst 33342 staining based fluorescence microscopic analysis; format: functional, cell-based; details: dose 0.5-5 µM
3T3-L1 [27] = test: Inhibition of AKT/GSK3beta signalling pathway in mouse 3T3-L1 cells assessed as reduction in GSK3beta phosphorylation in early differentiation at 0.5 to 5 uM after 48 hrs by Western blot analysis; format: cell-based; details: dose 0.5-5 µM
3T3-L1 [28] = test: (§1) Cytotoxicity against mouse 3T3-L1 adipocytes assessed as reduction in cell viability after 48 hrs by MTT assay; format: toxicity, cell-based; details: 3t3-l1, 48 h, time 48 hrs
[29] = as §1; format: toxicity, cell-based; details: 3T3-L1 adipocytes
3T3-L1 [30] = test: Down regulation of SREBP1 mRNA expression in mouse 3T3-L1 cells at 0.5 to 5 uM after 48 hrs by RT-qPCR analysis; format: functional, cell-based; details: dose 0.5-5 µM, DDE = dose-dependent effect
3T3-L1 [31] = test: Down regulation of LPL mRNA expression in mouse 3T3-L1 cells in early differentiation at 0.5 to 5 uM after 8 days by RT-qPCR analysis; format: functional, cell-based; details: dose 0.5-5 µM, time 8.0 day
3T3-L1 [32] = test: Upregulation of p21 protein expression in mouse 3T3-L1 cells at 0.5 to 5 uM after 18 hrs by western blot analysis; format: functional, cell-based; details: dose 0.5-5 µM
3T3-L1 [33] = test: Antiproliferative activity against mouse 3T3-L1 cells assessed as reduction in cell proliferation at 0.5 to 5 uM after 24 to 72 hrs by crystal violet staining based assay; format: functional; details: dose 0.5-5 µM, time 24-72 hrs
3T3-L1 [34] = test: Down regulation of SREBP1 protein expression in mouse 3T3-L1 cells at 0.5 to 5 uM after 48 hrs by western blot analysis; format: functional, cell-based; details: dose 0.5-5 µM, DDE = dose-dependent effect
3T3-L1 [35] = test: Activation of AMPK-ACC signalling pathway in mouse 3T3-L1 cells assessed as increase in ACC phosphorylation in early differentiation at 0.5 to 5 uM after 48 hrs by Western blot analysis; format: cell-based; details: filed as activator, dose 0.5-5 µM
3T3-L1 [36] = test: Down regulation of PPARG mRNA expression in mouse 3T3-L1 cells at 0.5 to 5 uM after 48 hrs by RT-qPCR analysis; format: functional, cell-based; details: dose 0.5-5 µM, DDE = dose-dependent effect

## COc1cc(CCc2cc(O)c(O)c(OC)c2)ccc1O
[1]
  Activity: Toxic
3T3-L1 [2]
  Activity: Active
3T3-L1 [3]
  Activity: Active
[4]; PCS-210-010 adipocytes
  IC50 at 48 h: 71.9 µM
[4]; pcs-210-010, 48 h, time 48 hrs
  Activity: Toxic
3T3-L1 [5]
  Activity: Active
3T3-L1 [6]
  Activity: Active
PCS-210-010 [7]
  inhibition: Dde
PCS-210-010 [8]
  inhibition: Dde
PCS-210-010 [9]
  inhibition: Dde
PCS-210-010 [10]
  Activity: Non-Toxic
3T3-L1 [11]
  Activity: Active
3T3-L1 [12]
  Activity: Active
3T3-L1 [13]
  Activity: Active
[14]
  inhibition: Active
3T3-L1 [15]
  Activity: Active
[16]
  Activity: Active
3T3-L1 [17]
  Activity: Active
3T3-L1 [18]
  Activity: Active
3T3-L1 [19]
  Activity: Active
3T3-L1 [20]
  Activity: Active
PCS-210-010 [21]
  Activity: Non-Toxic
3T3-L1 [22]
  Activity: Non-Toxic
3T3-L1 [23]
  Activity: Active
3T3-L1 [24]
  inhibition: Dde
3T3-L1 [25]
  Activity: Active
3T3-L1 [26]
  Activity: Non-Toxic
3T3-L1 [27]
  inhibition: Active
3T3-L1 [28]
  Activity: Toxic
[29]
  IC50 at 48 h: 72.4 µM
3T3-L1 [30]
  Activity: Dde
3T3-L1 [31]
  Activity: Active
3T3-L1 [32]
  Activity: Active
3T3-L1 [33]
  Activity: Active
3T3-L1 [34]
  Activity: Dde
3T3-L1 [35]
  Activity: Active
3T3-L1 [36]
  Activity: Dde
